Results reported in EP1590332B1, “A PROCESS FOR THE SYNTHESIS OF BISBENZIMIDAZOLES AND THEIR DERIVATIVES” (University of Delhi, priority 2003, dated 2004).
Where two headings read alike, the source gives them in different places.

Key:
Calf thymus DNA = assay: Thermal denaturation / spectroscopic studies of ligand-DNA complex in presence and absence of radiation; format: binding
Protocol: (§1) The cytotoxic effect of DMA and TBZ on exponentially growing tumor cells BMG-1 was studied as a function of time. Cells were treated for 1 h with the ligands and allowed to grow for 24, 48 and 72 hours. The MTT assay was performed at the specified time points. […] There seemed to be no effect on the metabolic status of the treated cells. However, strikingly the metabolic activity of the treated cells seemed to be enhanced as compared to the untreated control cells. To further support our results we have performed cell survival assay at 0.1uM, 10uM and 100uM concentration of drug having control as untreated cell. These experiments were done thrice in six sets. Exponentially growing cells were used in these experiments and cell survival was studied using Macrocolony assay. The plating efficiency was nearly 77%. […] The increase in cell number as a function of time for the control as well as the treated cells remained same. The radioprotective effect of the newly synthesized ligands were studied spectroscopically as well as in human brain glioma cell line BMG-1. The spectroscopic studies done included UV-Vis sepctroscopy, Fluorescence spectroscopy, Anisotropy measurements and Lifetime measurements and Thermal denaturation studies. Calf thymus DNA was chosen as the DNA material and ligands were incubated with the DNA and irradiated at different doses of radiation. […] At the cellular level also, the ligands were incubated with the cells and cell survival assay was performed to study the radioprotective effect of the new ligands in comparison to the parent molecule Hoechst 33342.

BMG-1 cells [1] = tested on: BMG-1 cells
Protocol: (§2) The cytotoxic effect of DMA and TBZ on exponentially growing tumor cells BMG-1 was studied as a function of time. Cells were treated for 1 h with the ligands and allowed to grow for 24, 48 and 72 hours. The MTT assay was performed at the specified time points. […] These experiments were done thrice in six sets. Exponentially growing cells were used in these experiments and cell survival was studied using Macrocolony assay.
(§3) Cells were washed with HBSS and harvested using 0.05% trypsin. […] Colonies were fixed in methanol and stained with 1% crystal violet. Proliferation Kinetics BMG-1 cells were seeded at 7000-8000 cells/ cm^2, and their proliferation kinetics was measured at 24-h intervals by trypsinizinig and counting total cells per flask using a hemocytometer.

in vitro = conditions: bmg-1 cells
Protocol: as §2, §3

BMG-1 cells [2] = assay: cells; conditions: Homo sapiens
Protocol: as §2, §3

[3] = tested on: human brain malignant glioma cell line BMG-1; assay: MTT microtiter plate tetrazolium cytotoxicity assay; format: cell-based; conditions: cells treated 1 h
Protocol: as §1
The cytotoxicity was determined using the MTT microtiter plate tetrazolium cytotoxicity assay (MTA). The human brain malignant glioma cell line BMG-1 was used. The cytotoxicity assay was performed using 96-well microtiter plates. 3000 cells/ well were plated and treatment of the ligands was done 24 hours post plating. […] 150 µl of DMSO was added and the plate was read at 540 nm with reference at 630 nm.

Hek cells = assay: Macrocolony assay (cell survival assay) with 5 Gy irradiation; format: cell-based, human; conditions: 10uM drug added 1h before irradiation; for viability at 10 µM: Homo sapiens, HEK293, light or radiation study, read-out: Survival friction
Protocol: Both cell lines in triplicate were washed with HBSS, plated and grown for four days before harvesting using 0.05% trypsin, Depending on the treatments, 200 to 1200 cells were plated in 90 mm petri dishes and incubated at 37°C in 5% CO2 humidified atmosphere for 8 to 10 days. Colonies were fixed with methanol and stained with 1 % crystal violet Colonies containing more than 50 cells were counted.
Exponentially growing cells, 24 h after plating were irradiated at room temperature in growth medium with a Co-60 source (Gamma cell, AECL, Canada) at a dose rate of 0.5 to 1.2 Gy/min. Concentration of 10µm drug was added 1h before irradiation. Following this procedure, cells were grown for various time intervals to study growth kinetics and plated for Macrocolony assay as shown in the following Tables 3 & 4 and figure 1 & 2 Table 3

BMG-1 cells [4] = assay: Proliferation kinetics (growth kinetics); format: cell-based, human; conditions: 100µM, exponentially growing cells
Protocol: The cytotoxic effect of DMA and TBZ on exponentially growing tumor cells BMG-1 was studied as a function of time. Cells were treated for 1 h with the ligands and allowed to grow for 24, 48 and 72 hours. The MTT assay was performed at the specified time points. […] There seemed to be no effect on the metabolic status of the treated cells. However, strikingly the metabolic activity of the treated cells seemed to be enhanced as compared to the untreated control cells. To further support our results we have performed cell survival assay at 0.1uM, 10uM and 100uM concentration of drug having control as untreated cell. These experiments were done thrice in six sets. Exponentially growing cells were used in these experiments and cell survival was studied using Macrocolony assay. The plating efficiency was nearly 77%. […] The increase in cell number as a function of time for the control as well as the treated cells remained same. […] The spectroscopic studies done included UV-Vis sepctroscopy, Fluorescence spectroscopy, Anisotropy measurements and Lifetime measurements and Thermal denaturation studies. […]
Cells were washed with HBSS and harvested using 0.05% trypsin. […] Proliferation Kinetics BMG-1 cells were seeded at 7000-8000 cells/ cm^2, and their proliferation kinetics was measured at 24-h intervals by trypsinizinig and counting total cells per flask using a hemocytometer. […]

[5] = Ratio [ligand]/[DNA] 0.01, Dose 0 Gy
[6] = Ratio [ligand]/[DNA] 0.01, Dose 100 Gy
[7] = Ratio [ligand]/[DNA] 0.1, Dose 0 Gy
[8] = Ratio [ligand]/[DNA] 0.1, Dose 100 Gy
[9] = Table 3: BMG-1, 5 Gy irradiation, 10uM drug added 1h before irradiation
[10] = light or radiation study, read-out: Survival fraction, Table 3: BMG-1, 5 Gy irradiation, 10uM drug added 1h before irradiation
[11] = light or radiation study, read-out: Survival fraction, 1uM, no irradiation
[12] = light or radiation study, read-out: Survival fraction, 10uM, no irradiation
[13] = light or radiation study, read-out: Survival fraction, 100uM, no irradiation
[14] = read-out: Survival fraction, 1uM + 5 Gy
[15] = read-out: Survival fraction, 10uM + 2Gy
[16] = read-out: Survival fraction, 10uM + 5 Gy (Table 2)
[17] = read-out: Survival fraction, 10uM + 10 Gy
[18] = read-out: Survival fraction, 100uM + 5 Gy

Row | Compound | Tm (Calf thymus DNA; [5]) | Tm (Calf thymus DNA; [6]) | Tm (Calf thymus DNA; [7]) | Tm (Calf thymus DNA; [8]) | Plating efficiency % (BMG-1 cells [1]; [9]) | viability at 10 µM (BMG-1 cells [2]; [10]) | Plating efficiency % (Hek cells) | viability at 10 µM (Hek cells) | Plating efficiency % (BMG-1 cells [1]; 1uM + 5 Gy) | Plating efficiency % (BMG-1 cells [1]; 1uM, no irradiation) | Plating efficiency % (BMG-1 cells [1]; 10uM + 2Gy) | Plating efficiency % (BMG-1 cells [1]; 10uM + 5 Gy (Table 2)) | Plating efficiency % (BMG-1 cells [1]; 10uM + 10 Gy) | Plating efficiency % (BMG-1 cells [1]; 10uM, no irradiation) | Plating efficiency % (BMG-1 cells [1]; 100uM + 5 Gy) | Plating efficiency % (BMG-1 cells [1]; 100uM, no irradiation) | viability at 100 µM (in vitro) | viability at 1 µM (BMG-1 cells [2]; [11]) | viability at 10 µM (BMG-1 cells [2]; [12]) | viability at 100 µM (BMG-1 cells [2]; [13]) | further results
1 | CN1CCN(c2ccc3nc(-c4ccc5nc(-c6ccc(O)cc6)[nH]c5c4)[nH]c3c2)CC1 [Hoechst 33258, reference compound] | 71.5 °C | 67.5 °C | 81.7 °C | 79.3 °C |  |  |  |  |  |  |  |  |  |  |  |  |  |  |  |  | 
2 | CCOc1ccc(-c2nc3ccc(-c4nc5ccc(N6CCN(C)CC6)cc5[nH]4)cc3[nH]2)cc1 [Hoechst 33342, reference compound] |  |  |  |  | 20% | 10% | 20% | 10% |  |  |  |  |  |  |  |  |  |  |  |  | effect on cell survival (BMG-1 cells [1]; low concentrations, no irradiation): do not seem to have considerable effect on cell survival; viability at 100 µM (in vitro; cell survival, 100µM, no irradiation): 10%; viability at 10 µM (in vitro; surviving fraction, 10µM, no irradiation): 45%; cytotoxicity ([3]; 10µM, MTT at 24, 48 and 72 hours): highly cytotoxic
3 | COc1cc(-c2nc3cc(-c4nc5cc(-c6nc7cc(N8CCN(C)CC8)ccc7[nH]6)ccc5[nH]4)ccc3[nH]2)ccc1O [TBZ, 5-(4-methylpiperazine-1-yl)-2-[2'-{2"-(4-hydroxy-3-methoxyphenyl)-5"-benzimidazolyl}-5'-benzimidazolyl]benzimidazole] | 74.3 °C | 75 °C | 77.7 °C | 81.5 °C | 20% | 30% | 25% | 48% | 21% | 73% | 60% | 20% | 3.5% | 71% | 18% | 69% | 92% | 107% | 105% | 102% | effect on growth (BMG-1 cells [1]; 10µM, no irradiation): increase in growth; radioprotection in comparison to Hoechst 33342 (BMG-1 cells [1]; conclusion from BMG-1 and Hek cell lines): better radioprotectors; effect on growth (BMG-1 cells [1]; low concentrations (upto 10µM), no irradiation): slight stimulatory effect on growth; growth kinetics of the treated cells (BMG-1 cells [4]): did not differ from the untreated cells; cytotoxicity at 100 µM (in vitro): 9%; viability at 1 µM (BMG-1 cells [2]; [14]): 31%; viability at 10 µM (BMG-1 cells [2]; [15]): 89%; viability at 10 µM (BMG-1 cells [2]; [16]): 30%; viability at 10 µM (BMG-1 cells [2]; [17]): 5%; viability at 100 µM (BMG-1 cells [2]; [18]): 26%; cytotoxicity ([3]; 100µM, MTT up to 72 hours): do not show any cytotoxicity
4 | COc1ccc(-c2nc3cc(-c4nc5cc(N6CCN(C)CC6)ccc5[nH]4)ccc3[nH]2)cc1OC [DMA, 5-(4-methylpiperazin-1-yl)-2-[2'-(3,4-dimethoxyphenyl)-5'-benzimidazolyl]benzimidazole] |  |  |  |  | 27% | 40% | 27% | 50% | 22% | 65% | 63% | 27% | 4% | 67% | 25% | 64% | 73% | 97% | 100% | 95% | cytotoxicity at 10 µM (in vitro): 3%; viability at 1 µM (BMG-1 cells [2]; [14]): 32%; viability at 10 µM (BMG-1 cells [2]; [15]): 93%; viability at 10 µM (BMG-1 cells [2]; [16]): 40%; viability at 10 µM (BMG-1 cells [2]; [17]): 6%; viability at 100 µM (BMG-1 cells [2]; [18]): 38%; cytotoxicity ([3]; 100µM, MTT up to 72 hours): do not show any cytotoxicity
